Laboratory results from PMC6749314, “Development of the Tumor-Specific Antigen-Derived Synthetic Peptides as Potential Candidates for Targeting Breast and Other Possible Human Carcinomas” (Molecules, 2019).
Like-named read-outs stand apart in the source and are kept apart here. Blank lines part the entries; values can stand above or below the substance they belong to.

Tests used:
[1] = set-up: species or system Balb/c mice; details: mouse, in vivo, iv
Protocol: Approval for the animal protocol used in this study was obtained from the Institutional Animal Care and Use Committee. Animal studies were conducted according to the international regulations governing the safe and proper use of laboratory animals [48]. In vivo biodistribution studies were performed on healthy Balb/c mice (n = 3–5 in each group, body mass 19–22 g) at 1 and 4 h after i.v. injection of the HPLC-purified radiopeptide (100 μL, 10–15 μCi, total peptide dose ~10 ng) via the lateral tail vein as described previously [54]. Mice were euthanized by cervical dislocation at specified times, the selected tissues/organs were removed, and radioactivity was measured in a γ-counter. Uptake of radioactivity in the tissues and organs was expressed as the percent injected dose per gram (% ID/g) of tissue/organ, which was calculated by comparison with standard solutions representing 10% of the injected dose per animal. For the clearance studies, radioactivity in the urine with bladder is expressed as the percent of the injected dose per organ (% ID/organ).

T47D tumor xenografts = details: for tumor uptake: nude mice, mean ± SD
Protocol: (§3) In vivo biodistribution studies were performed on healthy Balb/c mice (n = 3–5 in each group, body mass 19–22 g) at 1 and 4 h after i.v. injection of the HPLC-purified radiopeptide (100 μL, 10–15 μCi, total peptide dose ~10 ng) via the lateral tail vein as described previously [54]. Mice were euthanized by cervical dislocation at specified times, the selected tissues/organs were removed, and radioactivity was measured in a γ-counter. Uptake of radioactivity in the tissues and organs was expressed as the percent injected dose per gram (% ID/g) of tissue/organ, which was calculated by comparison with standard solutions representing 10% of the injected dose per animal. For the clearance studies, radioactivity in the urine with bladder is expressed as the percent of the injected dose per organ (% ID/organ).
(§4) Approximately 7 million HER2-positive SKBR3 cells and MUC1-positive MCF7 and T47D breast tumor xenografts were injected subcutaneously into a group of nude female mice and allowed to grow for 4 to 6 weeks. After sufficient growth of tumors, the animals were sacrificed and the uptake of ^99mTc-HER2 and ^99mTc-MUC1 by the tumors and other major organs was determined by biodistribution experiments, as described above.

[2] = Radio-HPLC retention time on C18 reversed-phase column; type: physicochemical; details: Econosphere C18 (10 μm, 250 × 4.6 mm), 0.1% TFA water/CH3CN, 5 to 95% B over 30 min, 1.1 mL/min, longer retention ascribed to higher lipophilicity
Protocol: The HPLC analysis and purification of the peptides were performed on a Shimadzu HPLC system using Econosphere C18 reversed-phase column (10 μm, 250 × 4.6 mm, Alltech, Deerfield, IL, USA). For HPLC experiments, a gradient solvent system of 0.1% (v/v) TFA in water (solvent A) and 0.1% (v/v) TFA in CH3CN (solvent B) at a flow rate of 1.1 mL/min was used. The HPLC gradient began with a solvent composition of 95% A and 5% B from 0 to 2.5 min followed by a linear gradient of 95% A and 5% B to 5% A and 95% B over 30 min. The gradient remained at this position for 3 min before switching back to 95% A and 5% B for another 7 min. The main peak of each radiolabeled peptide was isolated, and acetonitrile then evaporated under a stream of nitrogen gas. The HPLC system (Shimadzu Corporation, Kyoto, Japan) was equipped with a UV-VIS detector (Shimadzu Corporation, Kyoto, Japan) set at 220 nm, a Flow-count γ-radioactivity detection system (Bioscan Inc., Washington, DC, USA) and the Lauralite HPLC chromatogram analysis program (LabLogic Systems Ltd., Sheffield, UK). Radiochemical purity was estimated by evaluating radioactivity peaks eluted for each ^99mTc-labeled peptide from the HPLC column and calculating the area under the peak (ROI). The HPLC-purified compounds were reconstituted in sterile saline and used for in vitro and in vivo experiments.

MCF7 tumor xenografts = details: for tumor uptake: nude mice, mean ± SD
Protocol: as §3, §4
(§5) In general, for preclinical gamma camera imaging, each tumor-bearing mouse model was intravenously injected with ~200 μCi of ^99mTc-HER2 or ^99mTc-MUC1 peptide through the tail vein. Mouse static planar images were then acquired at 1 h after the radiotracer injection by a portable hand-held γ-camera equipped with CsI(Tl) scintillation detector, with intrinsic spatial resolution of 2.45 mm (IP guardian 2, Li-Tech, Italy).

[3] = test system: T47D breast cancer cell line; assay: In vitro tumor cell binding (saturation, Kd); set-up: species or system human; details: for Kd: T47D, ~300,000 cells, 0.1-30 nM radiopeptide, 60 min, room temperature, duplicate, non-specific with ~200-fold excess unlabeled peptide, mean ± SD
Protocol: (§1) The cell-binding studies of ^99mTc-labeled HER2 and MUC1 peptides into respective HER2 and MUC1-positive human breast cancer cell lines (American Type Culture Collection, Rockville, MD, USA) was performed according to the method described previously. In brief, ~300,000 cells (in 0.3 mL low-serum media) were incubated with various amounts of radiopeptides, ranging between 0.1 and 30 nM of peptides (prepared from the serial dilutions of HPLC-purified radiopeptides), in duplicate for 60 min at room temperature. Incubation was terminated by dilution with cold saline (0.3 mL) and the cells were pelleted by centrifugation. The cell-pellets was then rapidly washed with cold saline to remove any unbound peptide and centrifuged to collect supernatants. Radioactivity in the cell-pellet and the washings was measured in a γ-counter. Non-specific binding was determined in the presence of ~200-fold molar excess of unlabeled peptide. Specific binding was calculated by subtracting the non-specifically bound radioactivity from that of the total binding. The dissociation constant (Kd) was calculated using a plot of specific cell-bound radioactivity versus increasing concentrations of the radiopeptide using a nonlinear regression analysis program (GraphPad Prism Software Inc., San Diego, CA, USA).

[4] = test system: MCF7 breast cancer cell line; assay: In vitro tumor cell binding (saturation, Kd); set-up: species or system human; details: ~300,000 cells, 0.1-30 nM radiopeptide, 60 min, room temperature, duplicate, non-specific with ~200-fold excess unlabeled peptide, mean ± SD
Protocol: as §1

[5] = type: physicochemical
Text: Table 1 Characterization of ^99mTc-HER2 and ^99mTc-MUC1 peptides. | column: Log P (Octanol/Saline)

T47D cells = assay: Cellular internalization (acid wash); type: cell-based, human; details: % of cell-surface bound radiopeptide internalized, acidic buffer pH 5.0, 10 min, 37 °C
Protocol: (§2) In order to differentiate between cell-surface bound and cellular internalized radioactivity, cell pellet was treated with 0.3 mL of acidic buffer (0.02 M sodium acetate in saline, pH 5.0) for 10 min at 37 °C at the end of the binding experiment, followed by centrifugation and washing with cold acidic buffer. The amount of cell surface-bound (acid-wash) and internalized (acid-resistant) radioactivity was determined by measuring the radioactivity of the supernatant and the cell-pellet, respectively, in a γ-counter.

MCF7 cells = assay: Cellular internalization (acid wash); type: cell-based, human; details: % of cell-surface bound radiopeptide internalized, acidic buffer pH 5.0, 10 min, 37 °C
Protocol: as §2

[6] = test system: MDA-MB-231 breast xenografts; assay: In vivo tumor targeting, MDA-MB-231 xenografts (negative control); details: nude mice, HER2-/MUC1-negative MDA-MB-231 xenografts, mean ± SD
[7] = test system: HER2-positive SKBR3 breast cancer cell line; assay: In vitro tumor cell binding (saturation, Kd); set-up: species or system human
Protocol: as §1

SKBR3 cells = assay: Cellular internalization (acid wash); type: cell-based, human; details: % of cell-surface bound radiopeptide internalized, acidic buffer pH 5.0, 10 min, 37 °C
Protocol: as §2

[8] = test system: HER2-positive SKBR3 tumor xenografts; details: for tumor uptake: nude mice, n = 3-5, mean ± SD
Protocol: as §3, §4, §5

[9] = test system: breast carcinoma xenografts; details: radiolabeled KCCYSL peptides, ref [8],[19]; cited from earlier work
Text: Several small peptide molecules have been developed in recent years for targeting HER2-positive breast cancer. For example, a 6-amino-acid containing peptide, KCCYSL, was discovered by the phage display method after in vitro selection with a recombinant ERBB2 extracellular domain. The KCCYSL peptide, derivatized with different metal chelators (i.e., DOTA, NOTA, CB-TE2A, and DAP) and radiolabeled with radionuclide metal ions (e.g., ^111In, ^64Cu, ^99mTc), has been successfully used for in vivo imaging of HER2 overexpressing tumor models. The tumor cell binding affinity (Kd) of KCCYSL for ...

[10] = molecular target: human epidermal growth factor receptor 2 (HER2) (human (endogenous in SKBR3, MCF7, T47D)) (UniProt P04626); assay: radioligand binding; saturation binding of 99mTc-labeled peptide (0.1-30 nM) to ~300,000 MCF7 cells in low-serum media, 60 min, room temperature; non-specific binding with ~200-fold molar excess of unlabeled peptide; nonlinear regression
[11] = molecular target: human epidermal growth factor receptor 2 (HER2) (human (endogenous in SKBR3, MCF7, T47D)) (UniProt P04626); assay: radioligand binding; saturation binding of 99mTc-labeled peptide (0.1-30 nM) to ~300,000 T47D cells in low-serum media, 60 min, room temperature; non-specific binding with ~200-fold molar excess of unlabeled peptide; nonlinear regression
p185HER2/neu = details: binding to p185HER2/neu; ref [22],[23],[24]; cited from earlier work
Text: AHNP peptide was able to disable HER2 tyrosine kinases in vitro and in vivo similar to the monoclonal antibody from which it was derived. […] It has been shown that AHNP diminished the early tyrosine phosphorylation of p185HER2/neu, and inhibited proliferation of p185HER2/neu overexpressing tumor cells in ...

[12] = MCF7 xenografts, 1 h p.i., unblocked

Substance: KCCYSL [literature values for chelator-derivatized, radiolabeled forms]
tumor uptake [9]: below 1 % ID/g

Substance: FCDGFYACYADVGGG [AHNP, anti-HER2/neu peptidomimetic designed from heavy-chain CDR3 loop of trastuzumab]
Kd (p185HER2/neu): 150 nM

Second part, led by results:

radioactivity found in the urine [1]: up to 47.0 ± 6.28 % ID | accumulation in the kidneys (T47D tumor xenografts; mouse, in vivo): 2.26 ± 0.36 % ID/g | cleared from the kidneys (T47D tumor xenografts; mouse, in vivo): 48% | hepatobiliary excretion (T47D tumor xenografts; mouse, in vivo): below 13 % ID | initial accumulation in the kidneys (T47D tumor xenografts; mouse, in vivo): 4.35 ± 1.0 % ID/g | radioactivity remaining in the blood circulation (T47D tumor xenografts; mouse, in vivo): 0.30 ± 0.07 % ID/g | HPLC Retention Time [2]: 14.10 min | hepatobiliary excretion (liver + intestines) (MCF7 tumor xenografts; mouse, in vivo): below 13 % ID | radioactivity excreted in the urine (MCF7 tumor xenografts; mouse, in vivo): up to 49 % ID | Log P (Octanol/Saline) [5]: −2.22 ± 0.12
Substance: Ac-GGCEPDTRP-NH2 [^99mTc-MUC1]
tumor-to-blood ratio (T47D tumor xenografts; T47D xenografts, 1 h p.i.): 3.27 | tumor-to-muscle ratio (T47D tumor xenografts; T47D xenografts, 1 h p.i.): 12.62 | tumor-to-muscle ratio (T47D tumor xenografts; T47D xenografts, 4 h p.i.): 11.40 | tumor uptake (T47D tumor xenografts; T47D xenografts, 1 h p.i.): 2.65 ± 0.54 % ID/g | tumor uptake (T47D tumor xenografts; T47D xenografts, 4 h p.i.): 1.14 ± 0.21 % ID/g | tumor-to-blood ratio (MCF7 tumor xenografts; MCF7 xenografts, 1 h p.i.): 2.39 | tumor-to-muscle ratio (MCF7 tumor xenografts; MCF7 xenografts, 1 h p.i.): 18.47 | tumor-to-blood ratio (MCF7 tumor xenografts; MCF7 xenografts, 4 h p.i.): 1.09 | tumor-to-muscle ratio (MCF7 tumor xenografts; MCF7 xenografts, 4 h p.i.): 11.20 | washout from the tumors (MCF7 tumor xenografts; MCF7 xenografts, over 4 h): 60% | tumor uptake, blocked (MCF7 tumor xenografts; MUC1-positive (MCF7) xenografts, 100 μg of unlabeled MUC1 peptide 30 min before injection of radiopeptide): 1.05 ± 0.21 % ID/g | reduction of tumor uptake by blocking dose (MCF7 tumor xenografts; MUC1-positive (MCF7) xenografts, 100 μg unlabeled MUC1 peptide 30 min before, P = 0.02): approximately 62% | tumor uptake (MCF7 tumor xenografts; [12]): 2.77 ± 0.63 % ID/g | tumor uptake (MCF7 tumor xenografts; MCF7 xenografts, 4 h p.i.): 1.12 ± 0.30 % ID/g | gamma camera imaging of tumor (MCF7 tumor xenografts; nude mouse, MCF7 xenograft, 1 h p.i., ~200 μCi i.v.): detectable in the image | Kd [3]: 3.48 ± 0.84 nM | binding affinity higher to T47D cell line compared to MCF7 cell line ([3]; ratio of Kd values): 3 fold | Kd [4]: 10.3 ± 1.55 nM | % Internalization (T47D cells): 21.11 ± 2.95% | % Internalization (MCF7 cells): 18.92 ± 2.16% | tumor uptake ([6]; 1 h p.i.): 0.64 ± 0.13 % ID/g | tumor uptake ([6]; 4 h p.i.): 0.41 ± 0.10 % ID/g

radioactivity found in the urine [1]: up to 40.0 ± 5.10 % ID | HPLC Retention Time [2]: 20.0 min | Log P (Octanol/Saline) [5]: 1.38 ± 0.06 | hepatobiliary excretion (liver + intestines) ([8]; mouse, in vivo): below 15 % ID | kidney accumulation and retention ([8]; mouse, in vivo): up to 10 % ID/g | radioactivity excreted in the urine ([8]; mouse, in vivo): up to 41 % ID
Substance: Acetyl-Gly^19-Gly^18-Cys^17-ALA^16-Lys^15-Ile^14-Phe^13-Gly^12-Ser^11-Leu^10-Ala^9-Phe^8-Leu^7-Lys^6-Cys^5-Cys^4-Tyr^3-Ser^2-Leu^1-CONH2 [^99mTc-HER2]
tumor uptake (T47D tumor xenografts; T47D xenografts, 1 h p.i.): 1.25 ± 0.32 % ID/g | tumor uptake (T47D tumor xenografts; T47D xenografts, 4 h p.i.): 0.80 ± 0.17 % ID/g | tumor uptake (MCF7 tumor xenografts; [12]): 1.33 ± 0.41 % ID/g | tumor uptake (MCF7 tumor xenografts; MCF7 xenografts, 4 h p.i.): 0.91 ± 0.22 % ID/g | Kd [3]: 169 ± 22.3 nM | Kd [4]: 158 ± 24.6 nM | Kd ([7]; SKBR3, ~300,000 cells, 0.1-30 nM radiopeptide, 60 min, room temperature, duplicate, non-specific with ~200-fold excess unlabeled peptide, mean ± SD): 50 ± 14.2 nM | binding affinity higher for SKBR3 cells than MCF7 and T47D cell lines ([7]; ratio of Kd values): more than 3 fold | % Internalization (T47D cells): 11.85 ± 2.83% | % Internalization (MCF7 cells): 12.16 ± 3.20% | % Internalization (SKBR3 cells): 19.90 ± 5.35% | tumor uptake ([6]; 1 h p.i.): 0.66 ± 0.13 % ID/g | tumor uptake ([6]; 4 h p.i.): 0.31 ± 0.10 % ID/g | tumor-to-blood ratio ([8]; SKBR3 xenografts, 1 h p.i.): 1.54 | tumor-to-muscle ratio ([8]; SKBR3 xenografts, 1 h p.i.): 9.37 | tumor-to-blood ratio ([8]; SKBR3 xenografts, 4 h p.i.): 1.34 | tumor-to-muscle ratio ([8]; SKBR3 xenografts, 4 h p.i.): 8.71 | washout from the tumors ([8]; SKBR3 xenografts, over 4 h): 57% | tumor uptake, blocked ([8]; SKBR3 xenografts, 100 μg of HER2 peptide 30 min before injection of radiopeptide): 1.07 ± 0.24 % ID/g | reduction of tumor uptake by blocking dose ([8]; SKBR3 xenografts, 100 μg of HER2 peptide 30 min before, P = 0.02): approximately 62% | tumor uptake ([8]; SKBR3 xenografts, 1 h p.i., unblocked): 2.81 ± 0.79 % ID/g | tumor uptake ([8]; SKBR3 xenografts, 4 h p.i.): 1.22 ± 0.25 % ID/g | gamma camera imaging of tumor ([8]; nude mouse, SKBR3 xenografts, 1 h p.i., ~200 μCi i.v.): detectable in the image

Kd [10]: 158 nM | Kd [11]: 169 nM
Substance: 99mTc-HER2 hybrid peptide (Acetyl-Gly-Gly-Cys-ALA-Lys-Ile-Phe-Gly-Ser-Leu-Ala-Phe-Leu-Lys-Cys-Cys-Tyr-Ser-Leu-CONH2)
